The source made the active and inactive calls. No cut-off for these calls is given here.
How the values were obtained:
Format in all cases: cell-based
[1] = target: T1, Neuronal acetylcholine receptor subunit alpha-7 (Homo sapiens, UniProt P36544); test: Agonist activity at human alpha7 nAChR expressed in Xenopus laevis oocytes assessed as induction of channel current at 100 uM at -90 mV holding potential by two-electrode voltage clamp method relative to acetylcholine
[2] = target: T1, Neuronal acetylcholine receptor subunit alpha-7; test: Agonist activity at human alpha7 nAChR expressed in Xenopus laevis oocytes assessed as induction of channel current at 10 uM at -90 mV holding potential by two-electrode voltage clamp method relative to acetylcholine
[3] = target: T1, Neuronal acetylcholine receptor subunit alpha-7; test: Agonist activity at human alpha7 nAChR expressed in Xenopus laevis oocytes assessed as peak current amplitude at -90 mV holding potential by two-electrode voltage clamp method relative to acetylcholine
[4] = target: T1, Neuronal acetylcholine receptor subunit alpha-7; test: Agonist activity at human alpha7 nAChR expressed in Xenopus laevis oocytes assessed as induction of channel current at -90 mV holding potential by two-electrode voltage clamp method
[5] = target: T2, 5-hydroxytryptamine receptor 3A (Homo sapiens, UniProt P46098); test: (§1) Antagonist activity at human 5-HT3A receptor expressed in Xenopus laevis oocytes at -90 mV holding potential in presence of serotonin by two-electrode voltage clamp method
T2 sequence (P46098 whole entry): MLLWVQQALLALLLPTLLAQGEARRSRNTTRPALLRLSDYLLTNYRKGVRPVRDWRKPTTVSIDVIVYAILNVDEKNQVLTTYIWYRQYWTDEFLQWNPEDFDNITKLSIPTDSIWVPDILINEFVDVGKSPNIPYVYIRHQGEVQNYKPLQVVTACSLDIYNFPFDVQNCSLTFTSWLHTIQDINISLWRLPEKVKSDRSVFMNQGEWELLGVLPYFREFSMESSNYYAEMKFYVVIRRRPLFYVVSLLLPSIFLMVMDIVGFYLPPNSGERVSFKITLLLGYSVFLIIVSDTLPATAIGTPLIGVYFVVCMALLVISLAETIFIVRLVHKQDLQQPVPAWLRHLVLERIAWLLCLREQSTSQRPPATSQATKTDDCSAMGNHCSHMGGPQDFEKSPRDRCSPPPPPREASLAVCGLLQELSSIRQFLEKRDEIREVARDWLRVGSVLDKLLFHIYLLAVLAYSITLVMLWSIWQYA

[6] = target: T3, 5-hydroxytryptamine receptor 3A (Homo sapiens) (UniProt P46098); test: as §1
T3 sequence (whole entry): T2 sequence (P46098 whole entry)

Homo sapiens [7] = species: Homo sapiens; test: Selectivity index, ratio of EC50 for alpha4beta2 nAChR (unknown origin) expressed in Xenopus laevis oocytes to EC50 for human alpha7 nAChR expressed in Xenopus laevis oocytes
[8] = target: T3, 5-hydroxytryptamine receptor 3A (Homo sapiens); test: Agonist activity at human 5-HT3A receptor expressed in Xenopus laevis oocytes at 10 uM at -90 mV holding potential by two-electrode voltage clamp method
[9] = target: T3, 5-hydroxytryptamine receptor 3A (Homo sapiens); test: Antagonist activity at human 5-HT3A receptor expressed in Xenopus laevis oocytes at 10 uM at -90 mV holding potential in presence of serotonin by two-electrode voltage clamp method
[10] = target: T1, Neuronal acetylcholine receptor subunit alpha-7; test: Agonist activity at human alpha7 nAChR expressed in Xenopus laevis oocytes preincubated with 1 uM alpha7 type-2 PAM PNU-120596 at -90 mV holding potential by two-electrode voltage clamp method
[11] = target: T4, Neuronal acetylcholine receptor; alpha3/beta4 (Homo sapiens, UniProt P30926+P32297); test: Agonist activity at alpha3beta4 nAChR (unknown origin) expressed in Xenopus laevis oocytes assessed as channel current at 10 uM at -90 mV holding potential by two-electrode voltage clamp method
T4 sequence (P30926 whole entry): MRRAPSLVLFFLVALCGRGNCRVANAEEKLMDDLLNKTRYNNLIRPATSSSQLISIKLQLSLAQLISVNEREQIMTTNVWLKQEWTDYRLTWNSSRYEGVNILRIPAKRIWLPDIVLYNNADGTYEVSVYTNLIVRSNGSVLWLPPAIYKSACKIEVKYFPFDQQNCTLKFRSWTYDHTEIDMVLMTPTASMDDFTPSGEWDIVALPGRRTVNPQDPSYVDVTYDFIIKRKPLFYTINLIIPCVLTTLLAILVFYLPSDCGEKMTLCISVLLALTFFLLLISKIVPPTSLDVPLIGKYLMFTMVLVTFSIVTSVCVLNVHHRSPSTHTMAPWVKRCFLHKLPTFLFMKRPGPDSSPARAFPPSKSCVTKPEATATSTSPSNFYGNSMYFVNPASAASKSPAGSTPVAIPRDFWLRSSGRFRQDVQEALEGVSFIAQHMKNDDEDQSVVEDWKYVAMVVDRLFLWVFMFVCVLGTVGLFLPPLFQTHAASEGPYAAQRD
T4 sequence (P32297 whole entry): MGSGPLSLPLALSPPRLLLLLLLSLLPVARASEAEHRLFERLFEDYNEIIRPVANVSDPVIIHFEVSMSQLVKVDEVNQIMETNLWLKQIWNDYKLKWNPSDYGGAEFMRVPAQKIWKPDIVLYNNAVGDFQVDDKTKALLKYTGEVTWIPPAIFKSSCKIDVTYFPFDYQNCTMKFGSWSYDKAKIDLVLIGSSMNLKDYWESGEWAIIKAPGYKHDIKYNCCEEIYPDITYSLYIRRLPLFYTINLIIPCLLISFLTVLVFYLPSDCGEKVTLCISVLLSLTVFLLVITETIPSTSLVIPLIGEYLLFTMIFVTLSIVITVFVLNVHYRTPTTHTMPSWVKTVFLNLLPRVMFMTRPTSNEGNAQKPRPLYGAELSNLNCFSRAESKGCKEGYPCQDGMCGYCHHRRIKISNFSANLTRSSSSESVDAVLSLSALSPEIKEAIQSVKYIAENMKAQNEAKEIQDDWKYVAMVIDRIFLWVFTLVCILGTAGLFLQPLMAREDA

Homo sapiens [12] = species: Homo sapiens; test: Selectivity index, ratio of IC50 for alpha3beta4 nAChR (unknown origin) expressed in Xenopus laevis oocytes to EC50 for human alpha7 nAChR expressed in Xenopus laevis oocytes
[13] = target: T4, Neuronal acetylcholine receptor; alpha3/beta4; test: Antagonist activity at alpha3beta4 nAChR (unknown origin) expressed in Xenopus laevis oocytes assessed as inhibition of acetylcholine-induced channel current at -90 mV holding potential by two-electrode voltage clamp method
[14] = target: T5, Neuronal acetylcholine receptor; alpha4/beta2 (Homo sapiens, UniProt P17787+P43681); test: Agonist activity at alpha4beta2 nAChR (unknown origin) expressed in Xenopus laevis oocytes assessed as induction of current at 10 uM at -90 mV holding potential by two-electrode voltage clamp method
T5 sequence (P17787 whole entry): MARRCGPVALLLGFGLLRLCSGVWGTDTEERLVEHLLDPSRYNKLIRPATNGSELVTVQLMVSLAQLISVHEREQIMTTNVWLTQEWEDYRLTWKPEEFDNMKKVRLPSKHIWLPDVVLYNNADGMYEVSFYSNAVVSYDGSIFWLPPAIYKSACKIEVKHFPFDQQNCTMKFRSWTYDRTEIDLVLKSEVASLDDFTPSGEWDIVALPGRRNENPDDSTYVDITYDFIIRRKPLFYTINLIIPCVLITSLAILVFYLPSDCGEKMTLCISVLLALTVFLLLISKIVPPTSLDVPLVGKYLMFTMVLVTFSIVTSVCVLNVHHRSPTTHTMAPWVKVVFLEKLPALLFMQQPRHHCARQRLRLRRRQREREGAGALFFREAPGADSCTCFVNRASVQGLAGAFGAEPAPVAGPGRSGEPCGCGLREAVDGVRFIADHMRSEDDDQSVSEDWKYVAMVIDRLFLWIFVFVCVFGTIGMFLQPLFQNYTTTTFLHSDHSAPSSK
T5 sequence (P43681 whole entry): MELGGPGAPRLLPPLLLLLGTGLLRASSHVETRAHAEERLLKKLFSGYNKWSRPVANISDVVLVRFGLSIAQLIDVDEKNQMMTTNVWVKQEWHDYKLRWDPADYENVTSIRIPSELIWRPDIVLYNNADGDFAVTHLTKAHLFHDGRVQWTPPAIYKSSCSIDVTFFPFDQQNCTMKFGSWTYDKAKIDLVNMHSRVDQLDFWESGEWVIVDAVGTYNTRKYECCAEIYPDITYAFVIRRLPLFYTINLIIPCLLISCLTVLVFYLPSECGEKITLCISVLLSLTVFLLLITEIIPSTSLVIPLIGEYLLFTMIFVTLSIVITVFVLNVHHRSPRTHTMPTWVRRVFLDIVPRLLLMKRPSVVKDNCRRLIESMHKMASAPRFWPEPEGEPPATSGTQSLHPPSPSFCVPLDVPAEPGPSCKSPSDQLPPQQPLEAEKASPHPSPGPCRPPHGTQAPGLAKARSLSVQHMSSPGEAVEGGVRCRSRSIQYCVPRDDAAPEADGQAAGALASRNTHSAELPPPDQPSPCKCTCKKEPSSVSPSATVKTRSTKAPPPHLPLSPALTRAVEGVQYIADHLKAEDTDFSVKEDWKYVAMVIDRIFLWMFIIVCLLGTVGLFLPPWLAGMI

[15] = target: T1, Neuronal acetylcholine receptor subunit alpha-7; test: Induction of desensitization at human alpha7 nAChR expressed in Xenopus laevis oocytes assessed as inhibition of acetylcholine induced current treated with compound prior to 100 uM acetylcholine challenge at -90 mV holding potential by two-electrode voltage clamp method
[16] = target: T1, Neuronal acetylcholine receptor subunit alpha-7; test: Agonist activity at human alpha7 nAChR expressed in Xenopus laevis oocytes assessed as channel current at 10 uM at -90 mV holding potential in presence of 10 nM alpha7 nAChR antagonist, MLA by two-electrode voltage clamp method
[17] = target: T1, Neuronal acetylcholine receptor subunit alpha-7; test: Agonist activity at human alpha7 nAChR expressed in Xenopus laevis oocytes assessed as increase in channel current at 10 uM at -90 mV holding potential in presence of 10 nM alpha7 nAChR antagonist, MLA measured after 10 mins by two-electrode voltage clamp method
[18] = target: T5, Neuronal acetylcholine receptor; alpha4/beta2; test: Agonist activity at alpha4beta2 nAChR (unknown origin) expressed in Xenopus laevis oocytes at -90 mV holding potential by two-electrode voltage clamp method
[19] = target: T4, Neuronal acetylcholine receptor; alpha3/beta4; test: Agonist activity at alpha3beta4 nAChR (unknown origin) expressed in Xenopus laevis oocytes assessed as induction of current at 100 uM at -90 mV holding potential by two-electrode voltage clamp method

T1 sequence (P36544 whole entry): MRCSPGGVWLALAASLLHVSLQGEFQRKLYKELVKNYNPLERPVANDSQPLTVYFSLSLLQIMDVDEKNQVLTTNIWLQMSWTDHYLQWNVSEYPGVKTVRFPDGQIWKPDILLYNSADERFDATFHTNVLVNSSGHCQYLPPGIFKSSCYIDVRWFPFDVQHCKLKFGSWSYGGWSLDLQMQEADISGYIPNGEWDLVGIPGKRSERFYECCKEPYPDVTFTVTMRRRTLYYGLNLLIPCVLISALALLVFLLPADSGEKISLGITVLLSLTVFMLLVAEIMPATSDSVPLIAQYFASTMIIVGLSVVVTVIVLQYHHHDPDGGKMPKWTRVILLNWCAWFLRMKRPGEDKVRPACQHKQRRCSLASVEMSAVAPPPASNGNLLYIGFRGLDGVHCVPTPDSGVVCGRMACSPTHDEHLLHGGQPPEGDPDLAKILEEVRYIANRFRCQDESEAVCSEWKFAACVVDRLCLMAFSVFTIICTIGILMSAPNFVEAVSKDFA

SMILES | Activity [1] | Activity [2] | other results
O=C(N[C@H]1CN2CCC1CC2)c1cc2ccc3cc(OCc4ccc(F)cc4)ccc3n2c1 | < 60% |  | 
CCCOc1ccc2c(ccc3cc(C(=O)N[C@H]4CN5CCC4CC5)cn32)c1 | < 60% | < 60% | 
O=C(N[C@H]1CN2CCC1CC2)c1cc2ccc3cc(N4CCCC4)ccc3n2c1 |  | < 60% | 
O=C(N[C@H]1CN2CCC1CC2)c1cc2ccc3cc(-c4cccnc4)ccc3n2c1 | 60 to 120% | < 60% | 
O=C(N[C@H]1CN2CCC1CC2)c1cc2ccc3cc(OCc4ccccc4)ccc3n2c1 | < 60% |  | 
O=C(N[C@H]1CN2CCC1CC2)c1cc2ccc3cc(O)ccc3n2c1 | > 120% |  | Emax [3]: 47.3%; EC50 [4]: 2000 nM
O=C(N[C@H]1CN2CCC1CC2)c1cc2ccc3ccccc3n2c1 |  | 60 to 120% | IC50 [5]: 710 nM; inhibition [6]: Dose-dependent effect; Ratio EC50 (Homo sapiens [7]): 3; Activity [8]: inactive; inhibition [9]: Active; Emax [3]: 72.4%; Activity [10]: Dose-dependent effect; EC50 [10]: 120 nM; Activity [11]: inactive; Ratio IC50/EC50 (Homo sapiens [12]): 5; EC50 [4]: 1880 nM; IC50 [13]: 10100 nM; Activity [14]: Active; IC50 [15]: 21.2 nM; inhibition [15]: Dose-dependent effect; Activity [16]: inactive; Activity [17]: Active; EC50 [18]: 6140 nM
O=C(N[C@H]1CN2CCC1CC2)c1cc2ccc3cc(Cl)ccc3n2c1 |  | < 60% | 
O=C(N[C@H]1CN2CCC1CC2)c1cc2ccc3cc(-c4ccncc4)ccc3n2c1 | < 60% |  | 
O=C(N[C@H]1CN2CCC1CC2)c1cc2ccc3cc(OC(F)F)ccc3n2c1 | 60 to 120% | < 60% | 
Cc1cc(-c2ccc3c(ccc4cc(C(=O)N[C@H]5CN6CCC5CC6)cn43)c2)ccn1 | < 60% |  | 
O=C(N[C@H]1CN2CCC1CC2)c1cc2n(c1)CCCC2 | < 60% |  | 
CCCC(C)Oc1ccc2c(ccc3cc(C(=O)N[C@H]4CN5CCC4CC5)cn32)c1 (stereo partly specified) | inactive |  | 
CC(C)(C)c1ccc(-c2ccc3c(ccc4cc(C(=O)N[C@H]5CN6CCC5CC6)cn43)c2)cc1 | 60 to 120% | 60 to 120% | 
O=C(N[C@H]1CN2CCC1CC2)c1cc2n(c1)CCC2 | < 60% |  | 
CCC(CC)Oc1ccc2c(ccc3cc(C(=O)N[C@H]4CN5CCC4CC5)cn32)c1 | inactive |  | 
O=C(N[C@H]1CN2CCC1CC2)c1cc2ccc3cc(F)ccc3n2c1 |  | 60 to 120% | Emax [3]: 58.6%; EC50 [4]: 8270 nM
CC(C)Oc1ccc2c(ccc3cc(C(=O)N[C@H]4CN5CCC4CC5)cn32)c1 | inactive |  | 

SMILES | Activity [1] | Activity [2] | other results
CC(C)COc1ccc2c(ccc3cc(C(=O)N[C@H]4CN5CCC4CC5)cn32)c1 |  | inactive | 
C=CCOc1ccc2c(ccc3cc(C(=O)N[C@H]4CN5CCC4CC5)cn32)c1 | inactive |  | 
O=C(N[C@H]1CN2CCC1CC2)c1cc2ccc3cc(-c4ccc(F)cc4)ccc3n2c1 | inactive |  | 
O=C(N[C@H]1CN2CCC1CC2)c1cc2ccc3cc(-c4ccccc4)ccc3n2c1 | 60 to 120% | < 60% | 
O=C(N[C@H]1CN2CCC1CC2)c1cc2ccc3cc(C4CC4)ccc3n2c1 |  | < 60% | 
C#CCOc1ccc2c(ccc3cc(C(=O)N[C@H]4CN5CCC4CC5)cn32)c1 |  | 60 to 120% | Emax [3]: 34.5%; EC50 [4]: 7630 nM
Cc1ccccc1-c1ccc2c(ccc3cc(C(=O)N[C@H]4CN5CCC4CC5)cn32)c1 | > 120% | 60 to 120% | Emax [3]: 23.1%; EC50 [4]: 3200 nM
O=C(N[C@H]1CN2CCC1CC2)c1cc2ccc3cc(Br)ccc3n2c1 |  | < 60% | 
CC(=O)OCC[N+](C)(C)C |  |  | Activity [19]: Active
COc1ccc2c(ccc3cc(C(=O)N[C@H]4CN5CCC4CC5)cn32)c1 |  | < 60% | 
O=C(N[C@H]1CN2CCC1CC2)c1cc2ccc3cc(C(F)(F)F)ccc3n2c1 |  | < 60% | 
O=C(N[C@H]1CN2CCC1CC2)c1cc2cccc(Cl)c2s1 [ENCENICLINE] |  |  | Emax [3]: 27.6%; EC50 [4]: 250 nM
O=C(N[C@H]1CN2CCC1CC2)c1cc2ccc3cc(OC4CCC4)ccc3n2c1 | < 60% |  | 
Cc1ccc2c(ccc3cc(C(=O)N[C@H]4CN5CCC4CC5)cn32)c1 | > 120% | > 120% | Emax [3]: 29.2%; EC50 [4]: 1270 nM
O=C(N[C@H]1CN2CCC1CC2)c1cc2ccc3cc(OCc4cccnc4)ccc3n2c1 | 60 to 120% |  | 
O=C(N[C@H]1CN2CCC1CC2)c1cc2ccc3cc(N4CCCCC4)ccc3n2c1 |  | < 60% | 
O=C(N[C@H]1CN2CCC1CC2)c1cc2ccc3cc(-c4ccsc4)ccc3n2c1 | < 60% |  | 

Reference: ChEMBL document CHEMBL4406831, “Discovery of fused heterocyclic carboxamide derivatives as novel α7-nAChR agonists: Synthesis, preliminary SAR and biological evaluation” (Eur J Med Chem, 2019)
